Experimental findings from article PMC5654968 (NPJ Systems Biology and Applications, 2017) are described below.

As usually defined, the Cmax is the maximum level reached in the sampled fluid or tissue. In general, Tmax refers to the time from dosing to the highest level. A word on the AUC(0-t): it is exposure summed from dosing to a finite time, without extrapolation to infinity. What is called half-life is how long it takes for the measured level to halve. High values mean slow decline, low ones rapid decline.

Structures are written as SMILES. Like-named read-outs stand apart in the source and are kept apart here.

The data set in a line: Plasma PK of major maoto compounds by LC-MS/MS after oral administration of maoto. Type of data set: in vivo, rat. On the procedure:
1 (7:00-19:00). Rats were maintained and used for the experiments in accordance
2 with the Guidelines for the Care and Use of Laboratory Animals of Tsumura &
3 CO. All experimental procedures were carried out upon approval from the
4 Laboratory Animal Committee of Tsumura & CO.
8 administered to 16-h fasted rats (n=3). […]
14 and 4 g/10mL/kg) were determined by LC-MS/MS. Based on a literature search,
16 amygdalin, prunasin, scopoletin, l-ephedrine, d-pseudoephedrine,
1 Plasma PK data were analyzed by noncompartmental modeling using
2 Phoenix WinNonlin (version 6.3, Certara L.P., St. Louis, MO, USA) to determine
3 various PK constants including Cmax, tmax, t1/2, and AUC0–last. The t1/2 was divided
4 by loge2/ke, where ke is the rate constant of terminal elimination (at least three
5 data points on the descending linear limb). […]

Where [1] appears, read: Sprague-Dawley, rat, plasma, po, 1 g/kg.
The mark [2] stands for this setting: Sprague-Dawley, rat, plasma, po, 1 g/kg, read-out: Cmax.
[3] abbreviates: Sprague-Dawley, rat, plasma, po, 1 g/kg, read-out: Tmax.
Where [4] appears, read: Sprague-Dawley, rat, plasma, po, 2 g/kg.
Setting [5] is: Sprague-Dawley, rat, plasma, po, 2 g/kg, read-out: Cmax.
The mark [6] stands for this setting: Sprague-Dawley, rat, plasma, po, 2 g/kg, read-out: Tmax.
Setting [7] is: Sprague-Dawley, rat, plasma, po, 4 g/kg.
[8] abbreviates: Sprague-Dawley, rat, plasma, po, 4 g/kg, read-out: Cmax.
[9] abbreviates: Sprague-Dawley, rat, plasma, po, 4 g/kg, read-out: Tmax.

Turning to `Oc1cc(O)c2c(c1)O[C@H](c1ccc(O)c(O)c1)[C@@H](O)C2` [(+)-Catechin], under “rat plasma, oral maoto 1 g/kg”, the AUClast entry is “BQL” and the Cmax entry is reported as “BQL”. In addition, for the setting “rat plasma, oral maoto 2 g/kg”, the AUClast turned out to be 0.111 ng·h/mL, the Cmax stood at 0.443 ng/mL and the Tmax amounted to 1.00 h. Moreover, for the setting “rat plasma, oral maoto 4 g/kg”, the AUClast worked out at 1.71 ng·h/mL, the maximum concentration (Cmax) was determined as 3.75 ng/mL and the Tmax amounted to 0.250 h.
In the case of `N#C[C@H](O[C@@H]1O[C@H](CO[C@@H]2O[C@H](CO)[C@@H](O)[C@H](O)[C@H]2O)[C@@H](O)[C@H](O)[C@H]1O)c1ccccc1` [Amygdalin], the exposure AUC(0-t) under setting [1] stood at 346 ng·h/mL, the AUC(0-t) under setting [4] was 1520 ng·h/mL and the exposure AUC(0-t) under setting [7] was 7610 ng·h/mL. Further, the half-life runs as follows: under setting [1], 1.31 h; under setting [4], 0.937 h; under setting [7], 2.47 h. In addition, the Cmax reads like this: under setting [2], 101 ng/mL; under setting [5], 653 ng/mL; under setting [8], 5250 ng/mL. For the same compound, the Tmax runs as follows: under setting [3], 0.25 h; under setting [6], 1 h; under setting [9], 0.25 h.
Take `O=C(O)/C=C/c1ccccc1` [Cinnamic acid]: the AUC(0-t) by setting is: under setting [1], 624 ng·h/mL; under setting [4], 2060 ng·h/mL; under setting [7], 5750 ng·h/mL. Also, the Cmax is 1060 ng/mL under setting [2], 1280 ng/mL under setting [5] and 2120 ng/mL under setting [8]. For the same compound, the half-life under setting [4] was 1.3 h and the half-life under setting [7] was 1.64 h.
Turning to `Oc1cc(O)c2c(c1)O[C@H](c1ccc(O)c(O)c1)[C@H](O)C2` [Epicatechin], the AUC(0-t) is 4.24 ng·h/mL under setting [1], 2.78 ng·h/mL under setting [4] and 6.92 ng·h/mL under setting [7]. Besides, the half-life is 5.05 h under setting [1], 2.03 h under setting [4] and 3.49 h under setting [7]. The Cmax reads like this: under setting [2], 1.82 ng/mL; under setting [5], 1.95 ng/mL; under setting [8], 8.34 ng/mL. In addition, the Tmax reads like this: under setting [3], 0.5 h; under setting [6], 0.25 h; under setting [9], 0.25 h.
As to `Oc1cc(O)c2c(c1)O[C@H](c1cc(O)c(O)c(O)c1)[C@H](O)C2` [Epigallocatechin], the AUC(0-t) by setting is: under setting [1], 0.457 ng·h/mL; under setting [4], 0.26 ng·h/mL; under setting [7], 0.286 ng·h/mL. The same compound gave a half-life under setting [1] of 5.23 h, a half-life under setting [4] of 3.16 h and a half-life under setting [7] of 0.834 h. For the same compound, the Cmax was 0.197 ng/mL under setting [2], 0.103 ng/mL under setting [5] and 0.456 ng/mL under setting [8]. For the same compound, the Tmax is, setting by setting: under setting [3], 0.5 h; under setting [6], 0.5 h; under setting [9], 0.25 h.
On to `COc1c(CC=C(C)C)c(O)cc2oc(=O)c(-c3ccc(O)cc3O)cc12` [Glycycoumarin], for which the area under the curve AUC(0-t) reads like this: under setting [1], 0.0105 ng·h/mL; under setting [4], 0.0227 ng·h/mL; under setting [7], 0.058 ng·h/mL. The Cmax runs as follows: under setting [2], 0.0836 ng/mL; under setting [5], 0.0906 ng/mL; under setting [8], 0.0753 ng/mL. Moreover, the Tmax worked out at 0.25 h under setting [3], 1 h under setting [6] and 0.25 h under setting [9].
`CC1(C)[C@@H](O)CC[C@]2(C)[C@H]3C(=O)C=C4[C@@H]5C[C@@](C)(C(=O)O)CC[C@]5(C)CC[C@@]4(C)[C@]3(C)CC[C@@H]12` [Glycyrrhetinic acid] showed an area under the curve AUC(0-t) under setting [1] of 2240 ng·h/mL, an exposure AUC(0-t) under setting [4] of 4510 ng·h/mL and an exposure AUC(0-t) under setting [7] of 3950 ng·h/mL. Also, the Cmax was 234 ng/mL under setting [2], 373 ng/mL under setting [5] and 301 ng/mL under setting [8]. The Tmax is, setting by setting: under setting [3], 8 h; under setting [9], 8 h; (rat plasma, oral maoto 2 g/kg) 10 h.
Regarding `O=C(/C=C/c1ccc(O)cc1)c1ccc(O)cc1O` [Isoliquiritigenin], the exposure AUC(0-t) is 19.8 ng·h/mL under setting [1], 31 ng·h/mL under setting [4] and 58.9 ng·h/mL under setting [7]. Further, the Cmax runs as follows: under setting [2], 10.4 ng/mL; under setting [5], 10.1 ng/mL; under setting [8], 7.59 ng/mL. Moreover, the Tmax is 0.25 h under setting [3], 0.25 h under setting [6] and 0.25 h under setting [9]. For the same compound, the half-life is 11.1 h under setting [4] and 3.61 h under setting [7]. Further, the t1/2 (rat plasma, oral maoto 1 g/kg) was determined as 3.42 h.
Turning to `O=C(/C=C/c1ccc(O[C@@H]2O[C@H](CO)[C@@H](O)[C@H](O)[C@H]2O)cc1)c1ccc(O)cc1O` [Isoliquiritin], the AUC(0-t) reads like this: under setting [1], 2.09 ng·h/mL; under setting [4], 6.03 ng·h/mL; under setting [7], 12.6 ng·h/mL. The compound further had a half-life under setting [1] of 2.3 h and a half-life under setting [7] of 3.14 h. Further, the maximum concentration (Cmax) under setting [2] amounted to 1.6 ng/mL, the maximum concentration (Cmax) under setting [5] came out at 3.6 ng/mL and the maximum concentration (Cmax) under setting [8] was 8.71 ng/mL. For the same compound, the Tmax by setting is: under setting [3], 0.25 h; under setting [6], 1 h; under setting [9], 0.25 h.
Regarding `O=C1C[C@@H](c2ccc(O)cc2)Oc2cc(O)ccc21` [Liquiritigenin], where the note is “rat plasma, oral maoto 1 g/kg”, the AUClast is 17.4 ng·h/mL, the peak concentration (Cmax) is on record as 18.0 ng/mL and the Tmax was 0.250 h. Moreover, for the setting “rat plasma, oral maoto 2 g/kg”, the AUClast amounted to 35.0 ng·h/mL, the Cmax came out at 15.1 ng/mL and the time of peak concentration (Tmax) was found to be 1.00 h. Where the note is “rat plasma, oral maoto 4 g/kg”, the AUClast is 84.4 ng·h/mL, the Cmax is given as 16.1 ng/mL and the Tmax is given as 0.250 h.
Turning to `O=C1C[C@@H](c2ccc(O[C@@H]3O[C@H](CO)[C@@H](O)[C@H](O)[C@H]3O)cc2)Oc2cc(O)ccc21` [Liquiritin], the AUC(0-t) under setting [1] turned out to be 8.9 ng·h/mL, the AUC(0-t) under setting [4] worked out at 22.4 ng·h/mL and the AUC(0-t) under setting [7] turned out to be 61.4 ng·h/mL. Besides, the half-life was 1.95 h under setting [1], 2.23 h under setting [4] and 4.34 h under setting [7]. Further, the Cmax was 3.04 ng/mL under setting [2], 7.23 ng/mL under setting [5] and 71.7 ng/mL under setting [8]. Besides, the time to peak (Tmax) reads like this: under setting [3], 0.25 h; under setting [6], 1 h; under setting [9], 0.25 h.
As to `Oc1cc(O)c2c(c1)O[C@H](c1ccc(O)c(O)c1)[C@H](O)[C@H]2c1c(O)cc(O)c2c1O[C@H](c1ccc(O)c(O)c1)[C@H](O)C2` [Procyanidin B2], the AUC(0-t) is, setting by setting: under setting [4], 0.172 ng·h/mL; under setting [7], 2.06 ng·h/mL. Further, the Cmax by setting is: under setting [5], 0.687 ng/mL; under setting [8], 4.64 ng/mL; (rat plasma, oral maoto 1 g/kg) “BQL”. Moreover, the Tmax amounted to 1 h under setting [6] and 0.25 h under setting [9]. In addition, the AUClast entry (rat plasma, oral maoto 1 g/kg) is given as “BQL”.
Turning to `Oc1cc(O)c2c(c1)O[C@H](c1ccc(O)c(O)c1)[C@H](O)[C@H]2c1c(O)cc(O)c2c1O[C@H](c1ccc(O)c(O)c1)[C@H](O)[C@H]2c1c(O)cc(O)c2c1O[C@H](c1ccc(O)c(O)c1)[C@H](O)C2` [Procyanidin C1], the AUC(0-t) under setting [7] worked out at 1.69 ng·h/mL. For the same compound, the peak concentration (Cmax) reads like this: under setting [8], 3.9 ng/mL; (rat plasma, oral maoto 1 g/kg) “BQL”; (rat plasma, oral maoto 2 g/kg) “BQL”. Moreover, under setting [9], the Tmax came to 0.25 h. Moreover, the “detection in rat plasma by targeted LC-MS/MS” value (oral maoto 2 g/kg) is “not detected”. In addition, the AUClast result was “BQL” (rat plasma, oral maoto 1 g/kg) and “BQL” (rat plasma, oral maoto 2 g/kg).
Consider `N#C[C@H](O[C@@H]1O[C@H](CO)[C@@H](O)[C@H](O)[C@H]1O)c1ccccc1` [Prunasin], for which the area under the curve AUC(0-t) reads like this: under setting [1], 5520 ng·h/mL; under setting [4], 11900 ng·h/mL; under setting [7], 32000 ng·h/mL. The half-life was 0.891 h under setting [1], 2.45 h under setting [4] and 3.21 h under setting [7]. Further, the maximum concentration (Cmax) amounted to 2020 ng/mL under setting [2], 2240 ng/mL under setting [5] and 3250 ng/mL under setting [8]. The time to peak (Tmax) was found to be 0.5 h under setting [3], 0.5 h under setting [6] and 2 h under setting [9].
As for `COc1cc2ccc(=O)oc2cc1O` [Scopoletin], the exposure AUC(0-t) was 0.07 ng·h/mL under setting [1], 0.428 ng·h/mL under setting [4] and 0.591 ng·h/mL under setting [7]. Besides, the Cmax under setting [2] turned out to be 0.216 ng/mL, the peak concentration (Cmax) under setting [5] is 0.425 ng/mL and the Cmax under setting [8] came out at 0.237 ng/mL. Also, the time of peak concentration (Tmax) was 0.25 h under setting [3], 0.25 h under setting [6] and 0.25 h under setting [9]. The half-life under setting [4] is 2.39 h and the half-life under setting [7] was 5.44 h.
With `CN[C@@H](C)[C@@H](O)c1ccccc1` [d-Pseudoephedrine, d-pseudoephedrine], the AUC(0-t) reads like this: under setting [1], 183 ng·h/mL; under setting [4], 559 ng·h/mL; under setting [7], 1180 ng·h/mL. The half-life by setting is: under setting [1], 5.82 h; under setting [4], 6.58 h; under setting [7], 3.86 h. Further, the peak concentration (Cmax) was determined as 136 ng/mL under setting [2], 163 ng/mL under setting [5] and 253 ng/mL under setting [8]. Also, the time to peak (Tmax) reads like this: under setting [3], 0.25 h; under setting [6], 0.25 h; under setting [9], 0.25 h.
Regarding `CN[C@@H](C)[C@H](O)c1ccccc1` [l-Ephedrine, l-ephedrine], the AUC(0-t) is, setting by setting: under setting [1], 730 ng·h/mL; under setting [4], 1560 ng·h/mL; under setting [7], 2850 ng·h/mL. Further, the half-life by setting is: under setting [1], 1.35 h; under setting [4], 1.44 h; under setting [7], 4.19 h. Besides, the Cmax under setting [2] was determined as 311 ng/mL, the peak concentration (Cmax) under setting [5] turned out to be 377 ng/mL and the peak concentration (Cmax) under setting [8] came to 545 ng/mL. Further, the time to peak (Tmax) is 0.25 h under setting [3], 1 h under setting [6] and 0.25 h under setting [9].
